In US20090263744A1, “ETHYLENICALLY UNSATURATED COMPOUND, LIGHT SENSITIVE COMPOSITION, LIGHT SENSITIVE PLANOGRAPHIC PRINTING PLATE MATERIAL AND PRINTING PROCESS EMPLOYING THE SAME” (priority 2005, published 2009):

Assays:
[1] = Solubility of polymerizable monomer in 25° C. pure water (visual, no precipitations or oily separated components); assay type: physicochemical
Method: (§1) Herein, “dissolve” implies that no precipitations or oily separated components are visually observed under the following experimental conditions. Solubility in a 25° C. KOH aqueous solution having a pH of 12.5 or 25° C. pure water is represented by a value obtained by the following measuring method.
(§2) An ethylenically unsaturated compound is added to 20 ml of the solution or pure water described above at 25° C. in a 100 ml conical flask, stirred with a stirrer having a 1 cm long stirrer piece at a rate of 300 rpm for one hour, then allowed to stand for five minutes.
(§3) Solubility of polymerizable monomer to water or an alkali solution was measured according to the procedure described above.

[2] = Solubility of polymerizable monomer in alkali solution (25° C. KOH aqueous solution having a pH of 12.5); assay type: physicochemical; details: Table 3, pH 12.5
Method: as §1, §2, §3

## C=CC(=O)OCC(CO)(COC(=O)C=C)COC(=O)C=C [PETA, Pentaerythritol triacrylate]
[1]; Table 2, water, 25° C.
  Solubility of polymerizable monomer weight % (water): 0.1 weight %
[1]; Table 3, 25° C. pure water
  Solubility of polymerizable monomer, Pure water: 0.1 % by weight
[2]
  Solubility of polymerizable monomer, Alkali solution: 0.1 % by weight
